Results from paper PMC3433414, “Oral Administration of the Pimelic Diphenylamide HDAC Inhibitor HDACi 4b Is Unsuitable for Chronic Inhibition of HDAC Activity in the CNS In Vivo” (PLoS ONE, 2012).

Experiments:
R6/2^300Q mice = tested on: R6/2^300Q mice; parameters: method as in PMID 18829438; conditions: cited from earlier work
human recombinant HDAC1 = target: T1, human recombinant HDAC1 (Homo sapiens, UniProt Q13547); experiment: Two-step fluorogenic deacetylase assay, recombinant HDAC1; assay type: biochemical
T1 construct: purified recombinant human full length HDAC1 (cat# 50051); purchased BPS Bioscience (San Diego, CA) 50051
From the text: (§1) To assess the biochemical and cellular potency of 4b and its conversion products/metabolites, we utilized the two-step fluorogenic assay which measures the HDAC-mediated catalytic conversion of synthetic acetylated lysine substrates. In brief, on deacetylation of the substrates by HDAC activity, a protease site is unmasked which allows subsequent trypsin-mediated cleavage and release of the highly flourescent AMC molecules in a subsequent step of the assay. The substrates used were Lys_Ac_AMC (Bachem I-1875) for HDAC3 and (Ac)Arg-Gly-Lys(Ac) (Bachem I-1925) for HDAC1 and HDAC2. […] However, the relatively labile and sterically more demanding trifluoracetyl group is readily hydrolyzed by the catalytically less avid Class IIa enzymes, allowing measurement of Class IIa activity using the 2-step fluorogenic assay. […]
(§2) For evaluation of the class selectivity of the compounds, we assessed inhibition against purified recombinant human full length HDAC1 (cat# 50051), HDAC2 (cat# 50052), HDAC3-NcoR2 (cat# 50003) and HDAC8 (cat# 50008): as representative of Class I activity; catalytic domain HDAC4(αα 648–1057), HDAC5 (αα 657–1123; cat # 50005), HDAC7 (αα 518-end; cat # 50007) and HDAC9 (αα 604–1066; cat # 50009) activity: representing all Class IIa activity; and full length HDAC6 (cat#50006): representing Class IIb activity. […]

[1] = Simulated gastric fluid stability; assay type: in vitro ADME
Experimental: Simulated gastric fluid (SGF), pH 1.2, was prepared containing 2 g/L sodium chloride, 3.2 g/L of pepsin, 0.7% (v/v) HCl. Gastric buffer, pH 1.2, was also prepared containing 2 g/L sodium chloride and 0.7% (v/v) HCl. Test compound (10 µM) was added to both fluids and samples were mixed at room temperature on an orbital shaker. At each time-point (0, 2 and 4 h) 50 µL of sample was added to 150 µL DMSO, mixed and analysed immediately. Samples were analysed by LC-UV (λ = 254 nm. The instrument responses (i.e. chromatographic peak areas) were referenced to the zero time-point samples (as 100%) in order to determine the percentage of compound remaining at each time-point.

HDAC9 = target: T2, HDAC9 (Homo sapiens, UniProt Q9UKV0); experiment: Two-step fluorogenic deacetylase assay, recombinant HDAC9; assay type: biochemical; conditions: up to 50 µM
T2 construct: HDAC9 (αα 604–1066; cat # 50009); purchased BPS Bioscience (San Diego, CA) 50009
From the text: as §1, §2

[2] = Partition into erythrocytes; assay type: in vitro ADME; conditions: mouse
HDACs = experiment: Biochemical HDAC assays (whole panel); parameters: species or system human; conditions: up to 50 µM
From the text: as §1, §2

T2 sequence (Q9UKV0 604-1066 isoform Q9UKV0-5): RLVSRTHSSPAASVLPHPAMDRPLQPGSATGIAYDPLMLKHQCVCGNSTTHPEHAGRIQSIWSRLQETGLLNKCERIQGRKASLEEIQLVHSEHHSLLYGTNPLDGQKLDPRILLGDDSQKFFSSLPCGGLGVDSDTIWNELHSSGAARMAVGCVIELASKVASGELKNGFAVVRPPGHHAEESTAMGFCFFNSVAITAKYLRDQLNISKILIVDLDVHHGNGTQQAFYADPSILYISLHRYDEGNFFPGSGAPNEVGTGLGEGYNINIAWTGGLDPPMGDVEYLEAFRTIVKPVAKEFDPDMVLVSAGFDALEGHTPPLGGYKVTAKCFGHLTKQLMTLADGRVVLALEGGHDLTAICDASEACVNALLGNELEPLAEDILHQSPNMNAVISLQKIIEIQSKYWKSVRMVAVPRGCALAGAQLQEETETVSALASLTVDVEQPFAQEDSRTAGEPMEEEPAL
T1 sequence (Q13547 whole entry): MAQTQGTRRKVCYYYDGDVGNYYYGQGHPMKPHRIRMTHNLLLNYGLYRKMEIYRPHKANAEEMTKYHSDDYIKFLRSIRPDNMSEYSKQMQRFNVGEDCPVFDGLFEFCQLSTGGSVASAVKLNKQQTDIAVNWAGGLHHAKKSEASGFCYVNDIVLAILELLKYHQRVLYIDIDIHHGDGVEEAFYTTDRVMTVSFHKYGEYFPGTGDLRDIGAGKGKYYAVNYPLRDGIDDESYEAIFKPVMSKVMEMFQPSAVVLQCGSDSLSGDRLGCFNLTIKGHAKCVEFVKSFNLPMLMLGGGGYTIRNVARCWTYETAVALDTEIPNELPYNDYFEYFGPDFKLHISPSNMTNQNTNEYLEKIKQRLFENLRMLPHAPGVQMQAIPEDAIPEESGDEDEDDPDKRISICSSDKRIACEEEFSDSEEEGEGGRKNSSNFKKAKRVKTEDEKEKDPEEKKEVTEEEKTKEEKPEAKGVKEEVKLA

| Compound | gene expression abnormalities (R6/2^300Q mice; 150 mg/kg subcutaneous once daily for 3 days) | motor performance and appearance in chronic efficacy study (R6/2^300Q mice; drinking water, estimated 150 mg/kg/day, from 4 months of age) | IC50 (human recombinant HDAC1) [nM] | turnover in simulated gastric fluid ([1]; in 4 h) [%] | half-life at 10 µM ([1]; simulated gastric fluid (SGF), pH 1.2) [min] | activity against HDAC9 (HDAC9) | concentrations in whole blood relative to plasma [2] | blood plasma ratio ([2]; whole blood, data not shown) | activity in the biochemical HDAC assays (HDACs) |
| --- | --- | --- | --- | --- | --- | --- | --- | --- | --- |
| Nc1ccccc1NC(=O)CCCCCC(=O)Nc1ccccc1 [Compound 4b] | successfully ameliorated gene expression abnormalities | improved motor performance | 1510 | 5 | > 600 | No activity | approximately 4 times | ~3 |  |
| O=C(CCCCCc1nc2ccccc2[nH]1)Nc1ccccc1 [Compound C1, 6-(1-H-benzo[d]imidazol-2-yl)-N-phenylhexanamide] |  |  |  |  |  |  |  |  | no activity |
